Where a name gives a salt, the structure may show the parent alone.
Legend:
[1] = target: T1, Angiotensin I Converting Enzyme (ACE) (Oryctolagus cuniculus, UniProt P12822); experiment: Inhibition of Angiotensin I Converting Enzyme (ACE), substrate hippuryl-L-histidyl-L-leucine (HHL), hippuric acid produced; assay type: biochemical; conditions: pH 8.3, 37° C., one hour, read-out: Inhibitory Activity on ACE; for inhibition at 1 µM: Concentration 1 μM; for inhibition at 10 µM: Concentration 10 μM
T1 sequence (P12822 34-1310): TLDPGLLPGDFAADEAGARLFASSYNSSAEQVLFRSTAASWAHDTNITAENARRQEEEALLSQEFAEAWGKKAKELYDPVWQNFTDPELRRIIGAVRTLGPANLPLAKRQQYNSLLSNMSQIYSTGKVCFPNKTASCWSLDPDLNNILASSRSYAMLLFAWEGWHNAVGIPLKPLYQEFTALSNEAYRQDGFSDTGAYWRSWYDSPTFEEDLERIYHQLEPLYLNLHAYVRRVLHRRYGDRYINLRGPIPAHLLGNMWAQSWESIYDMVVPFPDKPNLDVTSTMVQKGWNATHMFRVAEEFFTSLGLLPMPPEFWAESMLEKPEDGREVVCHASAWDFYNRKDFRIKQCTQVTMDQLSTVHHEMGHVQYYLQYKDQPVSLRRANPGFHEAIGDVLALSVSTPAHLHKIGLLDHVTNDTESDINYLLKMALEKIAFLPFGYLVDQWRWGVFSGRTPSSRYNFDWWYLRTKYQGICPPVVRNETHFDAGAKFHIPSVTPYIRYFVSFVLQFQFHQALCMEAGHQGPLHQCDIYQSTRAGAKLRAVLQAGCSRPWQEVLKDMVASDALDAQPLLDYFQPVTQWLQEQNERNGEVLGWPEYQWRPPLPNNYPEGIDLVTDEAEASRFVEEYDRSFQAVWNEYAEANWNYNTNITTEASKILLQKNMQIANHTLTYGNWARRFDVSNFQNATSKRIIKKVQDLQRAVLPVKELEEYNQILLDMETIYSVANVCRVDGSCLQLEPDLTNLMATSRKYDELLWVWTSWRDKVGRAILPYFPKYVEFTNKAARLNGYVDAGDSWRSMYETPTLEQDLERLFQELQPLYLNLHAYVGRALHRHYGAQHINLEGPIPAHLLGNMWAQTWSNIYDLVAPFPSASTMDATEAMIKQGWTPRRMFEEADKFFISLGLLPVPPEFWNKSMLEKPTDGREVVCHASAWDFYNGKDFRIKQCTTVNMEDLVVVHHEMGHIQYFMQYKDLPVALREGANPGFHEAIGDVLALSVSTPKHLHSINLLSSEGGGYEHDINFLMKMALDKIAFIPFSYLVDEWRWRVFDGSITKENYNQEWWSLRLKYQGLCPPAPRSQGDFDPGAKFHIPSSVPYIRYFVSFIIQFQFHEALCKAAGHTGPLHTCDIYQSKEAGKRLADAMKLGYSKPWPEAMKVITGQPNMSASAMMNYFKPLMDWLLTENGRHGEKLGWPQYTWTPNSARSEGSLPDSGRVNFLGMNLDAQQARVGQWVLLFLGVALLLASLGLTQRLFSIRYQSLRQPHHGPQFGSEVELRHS
Protocol: Inhibitions of Angiotensin I Converting Enzyme (ACE) by the Compounds of this Invention. The experiment was conducted in accordance with a modification of the method described by Cushman et al. [Biochemical Pharmacology, Vol. 20, 1637(1971)]. That is, using hippuryl-L-histidyl-L-leucine(HHL) as the substrate, the ACE inhibitory activity was determined in terms of percent inhibition on the amount of hippuric acid produced by ACE when the present compound was added. […] In this experiment, a potassium phosphate buffer solution containing dimethyl sulfoxide at a concentration equal to that of the test solution was used as a control. After incubating the solution at 37° C. for one hour, 150 μl of 1N hydrochloric acid was added to the solution to terminate the reaction. After 1 ml of ethyl acetate was added, the solution was centrifuged at 3000 r.p.m. for 10 minutes. A 0.5 ml aliquot was separated from the ethyl acetate layer and dried at a temperature below 50° C. under nitrogen gas streams. The residue was mixed with 5 ml of 1M aqueous sodium chloride and the mixture was subjected to colorimetry at a wavelength of 228 nm.

[2] = test system: Angiotensin I; experiment: Effect of present compounds against hypertensive activity of angiotensin I in rats, oral administration; assay type: in vivo, Male rats (Sprague-Dawley); conditions: rat, oral 13.8 μM/kg, angiotensin I 300 ng/kg i.v., corrected by angiotensin II reaction; for Percent Inhibition against Hypertensive Reaction by Angiotensin I, After 20 min.: 20 min after administration; for Percent Inhibition against Hypertensive Reaction by Angiotensin I, After 60 min.: 60 min after administration; for Percent Inhibition against Hypertensive Reaction by Angiotensin I, After 120 min.: 120 min after administration
Protocol: Effect of Present Compounds against Hypertensive Activity of Angiotensin I
Male rats (Sprague-Dawley) weighing 250 g to 350 g which were fed under free access to drinking water and feeds were used as experimental animals. The rats were anesthetized with intraperitoneal administration of pentobarbital sodium (50 mg/kg) on the day before the test day and a polyethylene tube was inserted into each of the femoral artery for measurement of blood pressure and the femoral vein for injection of angiotensin I and II, and then the tubes were fixed.
On the test day, an average blood pressure in the control phase was recorded on an electric hemodynamometer (MP-4T model manufactured by Nippon Koden, Japan) and thereafter angiotensin I and then angiotensin II were injected through the femoral vein at a dose of 300 ng/kg and 100 ng/kg respectively, to measure the hypertensive activity. Then, 13.8 μM/kg of the compound of this invention was administered orally as an aqueous solution or an aqueous gum arabic suspension, and 20, 60 and 120 minutes after the administration, angiotensin I and II were injected repeatedly to trace hypertensive reactions. In calculating the percent inhibition to the hypertensive activity of angiotensin I, the percent inhibitory value was corrected based on the variation with time in the hypertensive reaction by angiotensin II.

SMILES	inhibition at 1 µM [1] [%]	inhibition at 10 µM [1] [%]	Percent Inhibition against Hypertensive Reaction by Angiotensin I, After 20 min. [2] [%]	Percent Inhibition against Hypertensive Reaction by Angiotensin I, After 60 min. [2] [%]	Percent Inhibition against Hypertensive Reaction by Angiotensin I, After 120 min. [2] [%]
CCCCOC(=O)C(CCc1ccccc1)N[C@@H](C)C(=O)N(CC(=O)O)C1Cc2ccccc2C1 (stereo partly drawn) [Example 8, N-(1-butoxycarbonyl-3-phenylpropyl)-L-alanyl-N-(indan-2-yl)glycine hydrochloride]	69	99			
CCOC(=O)[C@H](CCc1ccc(OC)c(OC)c1)N[C@@H](C)C(=O)N(CC(=O)O)C1Cc2ccccc2C1.Cl [Example 15, N-[1-(S)-ethoxycarbonyl-3-(3,4-dimethoxyphenyl)propyl]-L-alanyl-N-(indan-2-yl)glycine hydrochloride]			84	80	65
C[C@H](N[C@@H](CCc1ccccc1)C(=O)O)C(=O)N(CC(=O)O)C1Cc2ccccc2C1 [Example 19, N-(1-(S)-carboxyl-3-phenylpropyl)-L-alanyl-N-(indan-2-yl)glycine]	95	98			

Continued, in another order:

inhibition at 1 µM [1] [%]	inhibition at 10 µM [1] [%]	SMILES	Percent Inhibition against Hypertensive Reaction by Angiotensin I, After 20 min. [2] [%]	Percent Inhibition against Hypertensive Reaction by Angiotensin I, After 60 min. [2] [%]	Percent Inhibition against Hypertensive Reaction by Angiotensin I, After 120 min. [2] [%]
87	97	CCOC(=O)C(CCc1ccccc1)N[C@@H](C)C(=O)N(CC(=O)O)C1Cc2ccccc2C1.Cl (stereo partly drawn) [Example 1, N-(1-ethoxycarbonyl-3-phenylpropyl)-L-alanyl-N-(indan-2-yl)glycine hydrochloride]	93	88	77
91	97	CCCOC(=O)C(CCc1ccccc1)N[C@@H](C)C(=O)N(CC(=O)O)C1Cc2ccccc2C1.Cl (stereo partly drawn) [Example 7, N-(1-propoxycarbonyl-3-phenylpropyl)-L-alanyl-N-(indan-2-yl)glycine hydrochloride]	84	91	96
72	95	CC(C)OC(=O)C(CCc1ccccc1)N[C@@H](C)C(=O)N(CC(=O)O)C1Cc2ccccc2C1.Cl (stereo partly drawn) [Example 9, N-(1-isopropoxycarbonyl-3-phenylpropyl)-L-alanyl-N-(indan-2-yl)glycine hydrochloride]	88	71	51
